Patent publication US8436043B2 (Takeda Pharmaceutical Company Limited, priority 2008, dated 2013)

Target: T1, human glucagon receptor (Homo sapiens, UniProt P47871)
T1 construct: made in house; host or cells: FreeStyle CHO cells, transient transfection with pMSRαneo/hGCGR; membrane fraction (35,000 rpm pellet)
Assay: Glucagon binding inhibitory activity ([125I]-glucagon binding to glucagon receptor membrane protein)
Settings: for inhibition at 10 µM: test compound 10 μM, 0.4% DMSO = 0%, non-labeled glucagon 1 μM = 100%, read-out: inhibitory rate (%) at 10 μM
Procedure: The glucagon binding inhibitory action of the compound of the present invention was evaluated by the following method.
(1) Cloning of Human Glucagon Receptor Gene
Human glucagon receptor gene was cloned by PCR reaction using human pancreas Marathon-ready cDNA (Clontech) as a template and the following primer set.
PCR reaction was performed using Advantage 2 polymerase (Clontech) and according to the attached protocol. The obtained PCR product was electrophoresed on an agarose gel (1%). An about 1.4 kb of DNA fragment containing a glucagon receptor gene was recovered from the gel and digested with restriction enzymes EcoRI and NotI. DNA treated with the restriction enzymes was electrophoresed on an agarose gel (1%). An about 1.4 kb of DNA fragment was recovered and ligated to plasmid pMSRαneo digested with restriction enzymes EcoRI and NotI to construct a human-type glucagon receptor expression plasmid DNA “pMSRαneo/hGCGR”.
(2) Preparation of Glucagon Receptor Membrane Protein
A human-type glucagon receptor was expressed using FreeStyle CHO Expression System (Invitrogen). A transient expression in FreeStyle CHO cell was performed using a human-type glucagon receptor expression plasmid DNA “pMSRαneo/hGCGR” and according to the manual attached to the FreeStyle CHO Expression System. The above-mentioned DNA was transfected and the cultured with shaking for 2 days (37° C., 8% CO2, 125 rpm). 2400 ml of culture medium was centrifuged at 2,000 rpm for 10 min and the cells were collected. The collected cells were washed with PBS, suspended in homogenate buffer [10 mM NaHCO3 (pH 7.4), 1 mM EDTA, Complete EDTA-free (Roche, 1 tablet/50 ml)] and disrupted by polytron cell disrupter (Kinematica AG). Disruption solution was centrifuged at 2,000 rpm for 10 min and the supernatant was collected.
(3) Measurement of Glucagon Binding Inhibitory Activity
The plate was stood for 90 min at room temperature. The reaction solution was transferred from the reaction plate to a 96 well unifilter GF/C plate (Perkin Elmer Inc.) using a cell harvester (Perkin Elmer Inc.) and the membrane fraction was collected on the filter by suction. The filter was presoaked in 2 mg/ml of polyethyleneimine to prevent non-specific adsorption of labeled ligand. The filter was washed 4 times with a reaction buffer and dried for 2 hr at 42° C. To each well was added 25 μl of scintillator (MicroScint0; Perkin Elmer Inc.), and the fluorescence amount was measured using a microplate scintillation counter (TopCount NXT™; Perkin Elmer Inc.).
In addition, the inhibitory rate (%) of the well added with the test compound (10 μM; containing 0.4% DMSO) was calculated, using the reaction rate of the well added only with 0.4% DMSO as 0% inhibitory rate, and the reaction rate of the well added with non-labeled glucagon (final concentration 1 μM) as 100% inhibitory rate.

T1 sequence (P47871 26-477): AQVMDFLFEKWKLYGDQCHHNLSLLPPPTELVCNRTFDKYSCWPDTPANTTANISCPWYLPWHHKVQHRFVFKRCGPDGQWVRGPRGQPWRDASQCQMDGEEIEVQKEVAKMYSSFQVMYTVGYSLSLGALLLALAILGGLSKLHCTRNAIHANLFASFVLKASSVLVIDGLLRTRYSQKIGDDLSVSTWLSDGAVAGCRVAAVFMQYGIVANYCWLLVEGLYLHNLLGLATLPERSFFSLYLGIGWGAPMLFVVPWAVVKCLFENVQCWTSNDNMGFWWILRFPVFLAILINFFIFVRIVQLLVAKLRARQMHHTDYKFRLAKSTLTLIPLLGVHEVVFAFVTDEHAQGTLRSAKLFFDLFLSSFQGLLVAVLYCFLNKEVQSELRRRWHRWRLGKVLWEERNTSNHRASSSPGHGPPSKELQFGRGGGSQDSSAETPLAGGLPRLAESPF

SMILES | inhibition at 10 µM [%] | IC50 (human glucagon receptor membrane protein, [125I]-glucagon, 90 min room temperature) [nM]
COc1ccc(-n2cc(C(Nc3ccc(C(=O)N(C)CCC(=O)O)cc3)C3CCCCC3)c(C3CC3)n2)cc1 (stereo not shown) [Example 47, 3-[{[4-({cyclohexyl[3-cyclopropyl-1-(4-methoxyphenyl)-1H-pyrazol-4-yl]methyl}amino)phenyl]carbonyl}(methyl)amino]propanoic acid] | 66 | –
CCc1nn(-c2ccc(OC)cc2)cc1C(CC(C)C)Nc1ccc(C(=O)NCCC(=O)O)cc1 (stereo not shown) [Example 48, 3-({[4-({1-[3-ethyl-1-(4-methoxyphenyl)-1H-pyrazol-4-yl]-3-methylbutyl}amino)phenyl]carbonyl}amino)propanoic acid] | 63 | –
CCc1nn(-c2ccc(OC)cc2)cc1C(Nc1ccc(C(=O)NCCC(=O)O)cc1)C1CCCCC1 (stereo not shown) [Example 50, 3-({[4-({cyclohexyl[3-ethyl-1-(4-methoxyphenyl)-1H-pyrazol-4-yl]methyl}amino)phenyl]carbonyl}amino)propanoic acid] | 68 | –
CCc1nn(-c2ccc(OC)cc2)cc1C(Nc1ccc(C(=O)N(C)CCC(=O)O)cc1)C1CCCCC1 (stereo not shown) [Example 51, 3-[{[4-({cyclohexyl[3-ethyl-1-(4-methoxyphenyl)-1H-pyrazol-4-yl]methyl}amino)phenyl]carbonyl}(methyl)amino]propanoic acid] | 60 | –
COc1ccc(-n2cc(C(Nc3ccc(C(=O)NCCC(=O)O)cc3)C3CCCCC3)c(C(C)C)n2)cc1 (stereo not shown) [Example 52, 3-({[4-({cyclohexyl[1-(4-methoxyphenyl)-3-(1-methylethyl)-1H-pyrazol-4-yl]methyl}amino)phenyl]carbonyl}amino)propanoic acid] | 63 | –
COc1ccc(-n2cc(C(CC(C)C)Nc3ccc(C(=O)NCCC(=O)O)cc3)c(C(C)C)n2)cc1 (stereo not shown) [Example 54, 3-({[4-({1-[1-(4-methoxyphenyl)-3-(1-methylethyl)-1H-pyrazol-4-yl]-3-methylbutyl}amino)phenyl]carbonyl}amino)propanoic acid] | 62 | –
CCn1nc(-c2ccc(C(F)(F)F)cc2)cc1C(Nc1ccc(C(=O)NCCC(=O)O)cc1)C1CCCCC1 (stereo not shown) [Example 56, 3-[({4-[(cyclohexyl{1-ethyl-3-[4-(trifluoromethyl)phenyl]-1H-pyrazol-5-yl}methyl)amino]phenyl}carbonyl)amino]propanoic acid] | 76 | –
CCn1nc(-c2ccc(OC(F)(F)F)cc2)cc1C(Nc1ccc(C(=O)N(C)CCC(=O)O)cc1)C1CCCCC1 (stereo not shown) [Example 58, 3-[({4-[(cyclohexyl{1-ethyl-3-[4-(trifluoromethoxy)phenyl]-1H-pyrazol-5-yl}methyl)amino]phenyl}carbonyl)(methyl)amino]propanoic acid] | 69 | –
CCn1nc(-c2ccc(OC(F)(F)F)cc2)cc1C(CC(C)C)Nc1ccc(C(=O)N(C)CCC(=O)O)cc1 (stereo not shown) [Example 59, 3-[({4-[(1-{1-ethyl-3-[4-(trifluoromethoxy)phenyl]-1H-pyrazol-5-yl}-3-methylbutyl)amino]phenyl}carbonyl)(methyl)amino]propanoic acid] | 61 | –
O=C(O)CCNC(=O)c1ccc(NC(c2cn(-c3ccc(OC(F)(F)F)cc3)nc2OCc2ccccc2)C2CCCCC2)cc1 (stereo not shown) [Example 60, 3-{[(4-{[{3-(benzyloxy)-1-[4-(trifluoromethoxy)phenyl]-1H-pyrazol-4-yl}(cyclohexyl)methyl]amino}phenyl)carbonyl]amino}propanoic acid] | 71 | –
CN(CCC(=O)O)C(=O)c1ccc(NC(c2cn(-c3ccc(OC(F)(F)F)cc3)nc2OCc2ccccc2)C2CCCCC2)cc1 (stereo not shown) [Example 61, 3-{[(4-{[{3-(benzyloxy)-1-[4-(trifluoromethoxy)phenyl]-1H-pyrazol-4-yl}(cyclohexyl)methyl]amino}phenyl)carbonyl](methyl)amino}-propanoic acid] | 75 | 320
COc1nn(-c2ccc(OC(F)(F)F)cc2)cc1C(Nc1ccc(C(=O)NCCC(=O)O)cc1)C1CCCCC1 (stereo not shown) [Example 62, 3-[({4-[(cyclohexyl{3-methoxy-1-[4-(trifluoromethoxy)phenyl]-1H-pyrazol-4-yl}methyl)amino]phenyl}carbonyl)amino]propanoic acid] | 68 | –
COc1nn(-c2ccc(OC(F)(F)F)cc2)cc1C(Nc1ccc(C(=O)N(C)CCC(=O)O)cc1)C1CCCCC1 (stereo not shown) [Example 63, 3-[({4-[(cyclohexyl{3-methoxy-1-[4-(trifluoromethoxy)phenyl]-1H-pyrazol-4-yl}methyl)amino]phenyl}carbonyl)(methyl)amino]propanoic acid] | 72 | –
CC(C)Oc1nn(-c2ccc(OC(F)(F)F)cc2)cc1C(Nc1ccc(C(=O)NCCC(=O)O)cc1)C1CCCCC1 (stereo not shown) [Example 64, 3-[({4-[(cyclohexyl{3-(1-methylethoxy)-1-[4-(trifluoromethoxy)phenyl]-1H-pyrazol-4-yl}methyl)amino]phenyl}carbonyl)amino]propanoic acid] | 70 | –
CC(C)Oc1nn(-c2ccc(OC(F)(F)F)cc2)cc1C(Nc1ccc(C(=O)N(C)CCC(=O)O)cc1)C1CCCCC1 (stereo not shown) [Example 65, 3-[({4-[(cyclohexyl{3-(1-methylethoxy)-1-[4-(trifluoromethoxy)phenyl]-1H-pyrazol-4-yl}methyl)amino]phenyl}carbonyl)(methyl)amino]propanoic acid] | 64 | –
O=C(O)CCNC(=O)c1ccc(NC(c2cn(-c3ccccc3)nc2OCc2ccccc2)C2CCCCC2)cc1 (stereo not shown) [Example 66, 3-({[4-({[3-(benzyloxy)-1-phenyl-1H-pyrazol-4-yl](cyclohexyl)methyl}amino)phenyl]carbonyl}amino)propanoic acid] | 74 | –
CN(CCC(=O)O)C(=O)c1ccc(NC(c2cn(-c3ccccc3)nc2OCc2ccccc2)C2CCCCC2)cc1 (stereo not shown) [Example 67, 3-[{[4-({[3-(benzyloxy)-1-phenyl-1H-pyrazol-4-yl](cyclohexyl)methyl}amino)phenyl]carbonyl}(methyl)amino]-propanoic acid] | 72 | –
COc1ccc(-n2cc(C(Nc3ccc(C(=O)NCCC(=O)O)cc3)C3CCCCC3)c(CN3CCOCC3)n2)cc1 (stereo not shown) [Example 68, 3-({[4-({cyclohexyl[1-(4-methoxyphenyl)-3-(morpholin-4-ylmethyl)-1H-pyrazol-4-yl]methyl}amino)phenyl]carbonyl}amino)propanoic acid] | 66 | –
COc1cccc(-n2cc(C(Nc3ccc(C(=O)N(C)CCC(=O)O)cc3)C3CCCCC3)c(C)n2)c1 (stereo not shown) [Example 70, 3-[{[4-({cyclohexyl[1-(3-methoxyphenyl)-3-methyl-1H-pyrazol-4-yl]methyl}amino)phenyl]carbonyl}(methyl)amino]propanoic acid] | 75 | –
Cc1nn(-c2cccc(Cl)c2)cc1C(Nc1ccc(C(=O)N(C)CCC(=O)O)cc1)C1CCCCC1 (stereo not shown) [Example 71, 3-[{[4-({[1-(3-chlorophenyl)-3-methyl-1H-pyrazol-4-yl](cyclohexyl)methyl}amino)phenyl]carbonyl}(methyl)amino]-propanoic acid] | 71 | –
COc1ccccc1-n1cc(C(Nc2ccc(C(=O)N(C)CCC(=O)O)cc2)C2CCCCC2)c(C)n1 (stereo not shown) [Example 72, 3-[{[4-({[1-(2-methoxyphenyl)-3-methyl-1H-pyrazol-4-yl](cyclohexyl)methyl}amino)phenyl]carbonyl}(methyl)amino]-propanoic acid] | 51 | –
Cc1nn(-c2ccccc2Cl)cc1C(Nc1ccc(C(=O)N(C)CCC(=O)O)cc1)C1CCCCC1 (stereo not shown) [Example 73, 3-[{[4-({[1-(2-chlorophenyl)-3-methyl-1H-pyrazol-4-yl](cyclohexyl)methyl}amino)phenyl]carbonyl}(methyl)amino]-propanoic acid] | 59 | –
COc1cccc(-n2cc(C)c(C(Nc3ccc(C(=O)N(C)CCC(=O)O)cc3)C3CCCCC3)n2)c1 (stereo not shown) [Example 75, 3-[{[4-({cyclohexyl[1-(3-methoxyphenyl)-4-methyl-1H-pyrazol-3-yl]methyl}amino)phenyl]carbonyl}(methyl)amino]propanoic acid] | 61 | –
COCc1nn(-c2cccc(OC)c2)cc1C(Nc1ccc(C(=O)N(C)CCC(=O)O)cc1)C1CCCCC1 (stereo not shown) [Example 76] | 68 | –
